Measurements reported in patent US20060105940A1, “Compound useful in the treatment or prevention of cognitive disorders associated with diabetes and associated methods” (Axonyx, Inc., priority 2004, published 2006).
Structures can show the parent of a compound that is named as a salt. Where two headings read alike, the source gives them in different places.

What was measured:
[1] = system: aged (24-26-month-old) Fischer-344 rats; settings: Stone 14-unit T-maze, Greig et al. 2003; cited from earlier work
[2] = Solubility in water / aqueous solution; format: physicochemical; settings: for Solubility (in words): aqueous solution, free base versus tartrate acid addition salt
human AChE [3] = target: T1, human AChE (Homo sapiens, UniProt P22303); settings: human AChE freshly prepared from human erythrocytes; see Greig et al. page 78; cited from earlier work
T1 construct: use human BChE and AChE freshly prepared from human plasma and erythrocytes, respectively; from tissue; host or cells: human erythrocytes

human BChE [4] = target: T2, human BChE (Homo sapiens, UniProt P06276); settings: human BChE freshly prepared from human plasma; see Greig et al. page 78; cited from earlier work
T2 construct: use human BChE and AChE freshly prepared from human plasma and erythrocytes, respectively; from tissue; host or cells: human plasma

human AChE [5] = target: T1, human AChE; assay: Inhibition of human erythrocyte AChE activity (IC50); format: biochemical; settings: human AChE freshly prepared from human erythrocytes
Source text: (§1) Potential cholinesterase agents may be evaluated for potency in vitro by assaying its inhibitory effect on electric eel and human red blood cell ACHE and human plasma BCHE activity in cell-free extracts (See U.S. Pat. Nos. 6,495,700; 5,409,948; 5,171,750; 5,378,723; and 5,998,460). Studies also commonly utilize aged rat models to evaluate effectiveness of therapeutic drug leads in ameliorating cognitive disorders. […] (See, Greig, N. H. et al. “Butyrylcholinesterase: Its Function and Inhibition.” (ed., Giacobini, E.) Martin Dunitz, Ltd., London, 69-90, 2003, Chapter 6: Butyrylcholinesterase: its selective inhibition and relevance to Alzheimer's disease therapy at pages 80-81).
(§2) (See, Greig, N. H. et al. at page 78). These biological activity assays use human BChE and AChE freshly prepared from human plasma and erythrocytes, respectively.
(§3) These biological activity assays use human BChE and AChE freshly prepared from human plasma and erythrocytes, respectively.

[6] = system: aged (21-22 month old) Fisher-344 rats; assay: Stone maze cognitive ability test after i.p. MHI tartrate (Example VII); format: in vivo, rat; settings: 0.5 to 1.0 mg per kg intraperitoneal, daily, aged Fisher-344 rats
Experimental: (See U.S. Pat. No. 6,683,105). MHI tartrate is administered in dosages in the range of 0.5 to 1.0 mg per kg of subject body weight. This dosage is administered daily, for example, 1-3 times per day. Effectiveness of MHI tartrate is measured by testing cognitive ability before and after administration. For instance, rats may be tested using a “Stone maze” in which a maze constructed of translucent plastic containing a grid floor wired for scrambled foot shocks surrounded by opaque gray walls to minimize effects of non-MHI tartrate related variables. Rats are given 10 seconds in which to navigate the maze. […] Similar cognitive tests, for instance timed, objective memorization tests, may be used on other subjects, such as humans.

human BChE [7] = target: T2, human BChE; assay: Inhibition of human plasma BChE activity (IC50); format: biochemical; settings: human BChE freshly prepared from human plasma
Source text: as §1, §2, §3

T1 sequence (P22303 32-617 isoform P22303-2 limits assumed): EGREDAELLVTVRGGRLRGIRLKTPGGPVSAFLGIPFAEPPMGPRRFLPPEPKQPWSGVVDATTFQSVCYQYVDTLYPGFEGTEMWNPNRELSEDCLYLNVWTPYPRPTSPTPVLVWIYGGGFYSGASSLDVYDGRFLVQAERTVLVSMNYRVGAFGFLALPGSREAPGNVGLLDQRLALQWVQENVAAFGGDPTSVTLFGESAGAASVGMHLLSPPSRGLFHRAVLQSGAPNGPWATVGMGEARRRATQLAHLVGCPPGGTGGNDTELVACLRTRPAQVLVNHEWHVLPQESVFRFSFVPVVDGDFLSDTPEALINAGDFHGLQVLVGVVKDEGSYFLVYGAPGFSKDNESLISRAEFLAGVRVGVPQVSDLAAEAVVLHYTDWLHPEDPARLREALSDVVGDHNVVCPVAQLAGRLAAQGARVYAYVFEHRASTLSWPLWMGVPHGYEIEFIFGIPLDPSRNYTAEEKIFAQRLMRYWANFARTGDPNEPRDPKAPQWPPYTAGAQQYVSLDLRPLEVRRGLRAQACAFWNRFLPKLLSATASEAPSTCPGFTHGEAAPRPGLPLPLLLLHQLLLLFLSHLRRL
T2 sequence (P06276 29-602): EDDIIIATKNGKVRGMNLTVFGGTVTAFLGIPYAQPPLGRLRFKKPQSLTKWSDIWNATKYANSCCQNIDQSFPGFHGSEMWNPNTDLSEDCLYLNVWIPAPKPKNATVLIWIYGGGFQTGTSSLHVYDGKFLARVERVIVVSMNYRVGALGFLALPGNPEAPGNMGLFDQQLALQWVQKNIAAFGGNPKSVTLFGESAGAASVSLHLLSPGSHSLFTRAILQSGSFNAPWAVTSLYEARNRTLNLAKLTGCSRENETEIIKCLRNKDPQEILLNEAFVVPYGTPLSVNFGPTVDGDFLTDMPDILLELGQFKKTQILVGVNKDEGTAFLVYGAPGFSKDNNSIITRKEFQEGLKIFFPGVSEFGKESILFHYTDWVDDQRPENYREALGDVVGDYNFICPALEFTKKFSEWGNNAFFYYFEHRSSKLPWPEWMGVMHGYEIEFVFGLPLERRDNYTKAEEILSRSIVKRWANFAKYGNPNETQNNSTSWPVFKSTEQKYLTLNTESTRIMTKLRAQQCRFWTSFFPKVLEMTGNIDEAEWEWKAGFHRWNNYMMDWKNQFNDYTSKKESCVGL

## CC(C)c1ccc(NC(=O)Oc2ccc3c(c2)C2(C)CCNC2N3)cc1 (single isomer, unassigned; (-)) [MHI (Base)]
[1]
  Augmenting memory processing: potent in augmenting memory processing
[2]; listed as MHI
  Solubility: about 0.0005 g/ml
[2]
  Solubility (g per 100 ml Saturated H2O solution at room temperature): 0.05 g g per 100 ml
Human AChE [3]
  IC50: 0.11 ± 0.015 µM
Human BChE [4]
  IC50: 0.001 ± 0.0001 µM

## CC(C)c1ccc(NC(=O)Oc2ccc3c(c2)C2(C)CCNC2N3)cc1 [MHI tartrate, tartrate acid addition salt of the compound (−)-(3aS)-3a-methyl-1,2,3,3a,8,8a-hexahydropyrrolo-[2,3-b]indol-5-yl N-4′-isopropylphenylcarbamate]
[2]
  Solubility (in words): highly soluble
  Solubility (g per 100 ml Saturated H2O solution at room temperature): 1 g g per 100 ml
Human AChE [5]
  IC50: 0.11 ± 0.015 µM
[6]
  Cognitive ability (maze navigation): increase cognitive ability
Human BChE [7]
  IC50: 0.001 ± 0.0001 µM

## CC(C)c1ccc(NC(=O)Oc2ccc3c(c2)[C@]2(C)CCN(CCc4ccccc4)[C@@H]2N3C)cc1 [phenethylcymserine, reference compound]
[2]
  Solubility (in words): insoluble
